Laboratory results taken from US10774385B2, “Method of determining risk of 5-fluorouracil toxicity” (Oxford University Innovation Limited, priority 2014, dated 2020).

Key:
[1] = cited from earlier work
[2] = Spanish Capecitabine Pharmacogenetic (SCP) Study: diarrhea and HFS by CTCAE v3.0; format: in vivo, human; conditions: capecitabine monotherapy
Description: Two additional data sets were used for validation of toxicity associations. The Spanish Capecitabine Pharmacogenetic (SCP) Study consisted of 233 colorectal and breast cancer patients prospectively recruited through several oncology units in Spain and treated with one of two capecitabine monotherapy regimens (standard: 1250 mg/m^2 twice daily d1-14 every 3 weeks; continuous: 800 mg/m^2 orally every 12 hours daily). HFS and diarrhea data Table 4 were collected according to CTCAEv3.0.

[3] = QUASAR2 trial: FU-related adverse events of capecitabine +/- bevacizumab graded by NCI CTCAE v3.0; format: in vivo, human
Description: The QUASAR2 study (http://www.octo-oxford.org.uk/alltrials/infollowup/q2.html; http://www.controlled-trials.com/ISRCTN45133151/) is a phase III randomised controlled trial of adjuvant capecitabine (Xeloda) (1250 mg/m2 twice daily d1-14 every 3 weeks, total of 8 cycles) +/−bevacizumab (7.5 mg/kg every three weeks) following resection of stage II/III CRC. Patients were entered into the study between July 2005 and December 2011 at 123 UK and 81 non-UK sites. Of 1119 patients with blood collected as of July 2010, 1046 were selected for study based on availability of clinical data and informed consent.
Adverse events were graded following each treatment cycle using the NCI Common Toxicity Criteria for Adverse Events (CTCAE) version 3.0. Common FU-related toxicities—diarrhea, nausea and vomiting, mucositis/stomatitis, neutropaenia, thrombocytopaenia, and HFS—were analysed individually and also in combination as “global” toxicity. Adverse events were categorised as low (CTCAE grade 0/1/2) and high (CTCAE grade 3/4/5 at any treatment cycle). Hypertension and proteinuria were clearly related to bevacizumab (˜10-fold higher incidence) and were not included in the analysis.
The QUASAR2 study was used as described in Example 1(a)(i). Of 1,119 patients with blood collected as of July 2010, 1,046 were selected for genetic study based on completeness of clinical data and informed consent.
Toxicity phenotype data were collected as part of QUASAR2 according the NCI Common Toxicity Criteria for Adverse Events (CTCAE) version 3.0. Maximum toxicity (0-4) at any treatment cycle was derived for each of the following individual FU-related toxicities: diarrhea, nausea and vomiting, mucositis/stomatitis, neutropaenia, thrombocytopaenia and HFS. A global measure of toxicity was derived, defined as the maximum individual toxicity score measured for each patient. Global and individual toxicities were analysed using two approaches: (i) a binary classification into low toxicity (grade 0-2) versus high (dose-limiting) toxicity (grade 3-4); and (ii) a quantitative measure of toxicity. In the latter, if <100 patients experienced a particular grade of toxicity, these patients were combined into a single bin with an adjacent grade. Specifically, grades 01v2v34 for global, diarrhea and HFS and 0v1234 for the other, rarer toxicity phenotypes were analysed.

[4] = patients selected for high and low toxicity
[5] = human, in vivo, 8 cycles of 3 weeks

O=c1[nH]cc(F)c(=O)[nH]1 [FU, 5-fluorouracil]
Patients suffering substantial toxicities (Grade 3 or above, CTCAE v3.0) ([1]; FU chemotherapy, background statement): 10-30% | Mortality (Grade 5, CTCAE v3.0) associated with FU use ([1]; overall, literature): 0.5-1.0%

CCCCCOC(=O)Nc1nc(=O)n(C2OC(C)C(O)C2O)cc1F (stereo not drawn) [capecitabine, pentyl [1-(3,4-dihydroxy-5-methyltetrahydrofuran-2-yl)-5-fluoro-2-oxo-1H-pyrimidin-4-yl]carbamate]
Patients, Diarrhoea, highest CTCAE grade reported during treatment: 0 ([2]; 233 colorectal and breast cancer patients, selected for high and low toxicity): 143 | Patients, Diarrhoea, highest CTCAE grade reported during treatment: 1 [2, 4]: 23 | Patients, Diarrhoea, highest CTCAE grade reported during treatment: 2 [2, 4]: 17 | Patients, Diarrhoea, highest CTCAE grade reported during treatment: 3 [2, 4]: 32 | Patients, Diarrhoea, highest CTCAE grade reported during treatment: 4 [2, 4]: 4 | Patients, Handfoot, highest CTCAE grade reported during treatment: 0 [2, 4]: 85 | Patients, Handfoot, highest CTCAE grade reported during treatment: 1 [2, 4]: 28 | Patients, Handfoot, highest CTCAE grade reported during treatment: 2 [2, 4]: 30 | Patients, Handfoot, highest CTCAE grade reported during treatment: 3 [2, 4]: 86 | Patients, Handfoot, highest CTCAE grade reported during treatment: 4 [2, 4]: 2 | Share of capecitabine patients suffering dose-limiting levels of drug-induced adverse events ([1]; background statement): approximately one third | Mortality from rapid-onset toxicity relative to infusional and bolus 5-FU regimens (0.5% to 2%) ([1]; capecitabine schedules, literature): about half that number | Toxicity-induced deaths in QUASAR2 ([3]; QUASAR2, patients with grade 4 myelotoxicity): two | Patients, Global adverse event, CTCAE grade 0 [3, 5]: 75 | Patients, Global adverse event, CTCAE grade 1 [3, 5]: 241 | Patients, Global adverse event, CTCAE grade 2 [3, 5]: 375 | Patients, Global adverse event, CTCAE grade 3 [3, 5]: 334 | Patients, Neutropaenia, CTCAE grade 0 [3, 5]: 921 | Patients, Neutropaenia, CTCAE grade 1 [3, 5]: 71 | Patients, Neutropaenia, CTCAE grade 2 [3, 5]: 28 | Patients, Neutropaenia, CTCAE grade 3 [3, 5]: 17 | Patients, Thrombocytopaenia, CTCAE grade 0 [3, 5]: 961 | Patients, Thrombocytopaenia, CTCAE grade 1 [3, 5]: 67 | Patients, Thrombocytopaenia, CTCAE grade 2 [3, 5]: 9 | Patients, Thrombocytopaenia, CTCAE grade 3 [3, 5]: 0 | Patients, Thrombocytopaenia, CTCAE grade 4 [3, 5]: 4 | Patients, Vomiting, CTCAE grade 3 [3, 5]: 12 | Patients, Vomiting, CTCAE grade 4 [3, 5]: 3 | Patients, Diarrhoea, CTCAE grade 0 ([3]; human, in vivo, 24 weeks): 370 | Patients, Diarrhoea, CTCAE grade 1 ([3]; human, in vivo, 24 weeks): 388 | Patients, Diarrhoea, CTCAE grade 2 ([3]; human, in vivo, 24 weeks): 175 | Patients, Diarrhoea, CTCAE grade 3 ([3]; human, in vivo, 24 weeks): 99 | Patients, Diarrhoea, CTCAE grade 4 ([3]; human, in vivo, 24 weeks): 10 | Patients, Global adverse event, CTCAE grade 4 ([3]; human, in vivo, 24 weeks): 19 | Patients, Handfoot, CTCAE grade 0 ([3]; human, in vivo, 24 weeks): 176 | Patients, Handfoot, CTCAE grade 1 ([3]; human, in vivo, 24 weeks): 287 | Patients, Handfoot, CTCAE grade 2 ([3]; human, in vivo, 24 weeks): 331 | Patients, Handfoot, CTCAE grade 3 ([3]; human, in vivo, 24 weeks): 246 | Patients, Handfoot, CTCAE grade 4 ([3]; human, in vivo, 24 weeks): 1 | Patients, Mucositis, CTCAE grade 0 ([3]; human, in vivo, 24 weeks): 734 | Patients, Mucositis, CTCAE grade 1 ([3]; human, in vivo, 24 weeks): 248 | Patients, Mucositis, CTCAE grade 2 ([3]; human, in vivo, 24 weeks): 49 | Patients, Mucositis, CTCAE grade 3 ([3]; human, in vivo, 24 weeks): 11 | Patients, Mucositis, CTCAE grade 4 ([3]; human, in vivo, 24 weeks): 0 | Patients, Stomatitis, CTCAE grade 0 ([3]; human, in vivo, 24 weeks): 718 | Patients, Stomatitis, CTCAE grade 1 ([3]; human, in vivo, 24 weeks): 244 | Patients, Stomatitis, CTCAE grade 2 ([3]; human, in vivo, 24 weeks): 67 | Patients, Stomatitis, CTCAE grade 3 ([3]; human, in vivo, 24 weeks): 11 | Patients, Stomatitis, CTCAE grade 4 ([3]; human, in vivo, 24 weeks): 1 | Patients, Vomiting, CTCAE grade 0 ([3]; human, in vivo, 24 weeks): 817 | Patients, Vomiting, CTCAE grade 1 ([3]; human, in vivo, 24 weeks): 134 | Patients, Vomiting, CTCAE grade 2 ([3]; human, in vivo, 24 weeks): 74
